Several values for one entry are separate records, joined by “and”; a condition that tells them apart may be missing. Equal values may be shown once.
Assay: photoluminescence quantum yield (fraction); solvent given as SMILES

CCCCN(CCCC)c1ccc(C#Cc2cc(C#Cc3c(F)c(F)c(F)c(F)c3F)c(C#Cc3ccc(N(CCCC)CCCC)cc3)cc2C#Cc2c(F)c(F)c(F)c(F)c2F)cc1
photoluminescence quantum yield (in ClCCl): 0.14

C(=C\c1ccc2ccccc2c1)/c1ccc(Nc2ccccc2)cc1
photoluminescence quantum yield (in CC#N): 0.28 | photoluminescence quantum yield (in CCCCCC): 0.46

CCCCC(CC)COc1cc(OCC(CC)CCCC)c2c#cc3ccc4c(c3)c3cc(c#cc5cc(c#cc6ccc7c(c6)c6cc(c#cc1c2)ccc6n7CC(CC)CCCC)c(C(CCCC)OCCC)cc5C(CCCC)OCCC)ccc3n4CC(CC)CCCC (stereo unspecified)
photoluminescence quantum yield (in ClCCl): 0.32

Cc1ccccc1C1=C2C=c3c(oc4c3ccc3ccccc34)=[N+]2[B-](F)(F)n2c1cc1c3ccc4ccccc4c3oc12
photoluminescence quantum yield (in C1CCCCC1): 0.81 | photoluminescence quantum yield (in CCOC(C)=O): 0.69 | photoluminescence quantum yield (in CO): 0.48

N#Cc1ccc(-c2ccc(C3=CCCCC3)s2)s1
photoluminescence quantum yield (in CCO): 0.06

O=[N+]([O-])c1ccc(O)c(-c2nc3c(c4c2-c2ccccc2CC4)-c2ccccc2CC3)c1
photoluminescence quantum yield (in ClCCl): 0.2

c1ccc2c(-c3ccc4sc5ccc(-c6c7ccccc7cc7ccccc67)cc5c4c3)c3ccccc3cc2c1
photoluminescence quantum yield (in C1CCCCC1): 0.47 | photoluminescence quantum yield (in CC#N): 0.5 | photoluminescence quantum yield (in ClCCl): 0.57

O=C1c2ccccc2C2=Cc3cccc[n+]3[B-](F)(F)N12
photoluminescence quantum yield (in ClCCl): 0.47

N#Cc1cc(-n2c3ccccc3c3cc(Br)ccc32)c(-n2c3ccccc3c3cc(Br)ccc32)cc1C#N
photoluminescence quantum yield (in C1CCOC1): 0.057 | photoluminescence quantum yield (in c1ccc2c(c1)c1ccccc1n2-c1ccc(-c2ccc(-n3c4ccccc4c4ccccc43)cc2)cc1): 0.543

COc1ccc(C2=C(c3ccc(C)cc3)C(c3ccccc3)=[N+]3C2=Nc2c(-c4ccc(OC)cc4)c(-c4ccc(C)cc4)c(-c4ccccc4)n2[B-]3(F)F)cc1
photoluminescence quantum yield (in Cc1ccccc1): 0.01

CCCCN(CCCC)c1ccc(/C=C/c2ccc3nc(/C=C/c4ccc(N(C)C)cc4)c(-c4ccccc4)nc3c2)cc1
photoluminescence quantum yield (in C1COCCO1): 0.44 | photoluminescence quantum yield (in CC#N): 0.02 | photoluminescence quantum yield (in ClCCl): 0.24

Cc1cc(C)c(C2=C3C=c4c(c5ccccc5c5ccccc45)=[N+]3[B-](F)(F)n3c2cc2c4ccccc4c4ccccc4c23)c(C)c1
photoluminescence quantum yield (in C1CCCCC1): 0.64 | photoluminescence quantum yield (in C1CCOC1): 0.55 | photoluminescence quantum yield (in CC#N): 0.55 | photoluminescence quantum yield (in Cc1ccccc1): 0.51 | photoluminescence quantum yield (in ClCCl): 0.51 and 0.55

C(S/C=C/c1ccc(/C=C/SC=C2CCCCCC2)cc1)=C1CCCCCC1
photoluminescence quantum yield (in ClCCl): 0.109

c1ccc(C2c3ccccc3-c3cc4c(cc32)-c2ccccc2C4c2ccccc2)cc1 (stereo unspecified)
photoluminescence quantum yield (in ClCCl): 0.36

O=C(O)C1=C(C(=O)O)C2=C[C@H]3c4ccccc4[C@]2(S1)c1ccccc13
photoluminescence quantum yield (in ClCCl): 0.72

Cc1ccc2oc(-c3cc4cc(C)ccc4oc3=O)cc2c1
photoluminescence quantum yield (in CS(C)=O): 0.83

CNc1cc2nc3cc(Cl)c(Cl)cc3nc2cc1NC
photoluminescence quantum yield (in CCO): 0.14

FC(F)(F)c1ccc(-c2nc(-c3ccc(C(F)(F)F)cc3)n3ccccc23)cc1
photoluminescence quantum yield (in ClC(Cl)Cl): 0.16

COc1cc(OC)c2c(c1)C(=O)c1ccc(OC)cc1-2
photoluminescence quantum yield (in C1CCCCC1): 0.0095 | photoluminescence quantum yield (in CC#N): 0.0012 | photoluminescence quantum yield (in CCO): 0

COc1ccc(OC)c(C=O)c1
photoluminescence quantum yield (in C1CCOC1): 0.0001 | photoluminescence quantum yield (in C1COCCO1): 0.0001 | photoluminescence quantum yield (in CC#N): 0.0001 | photoluminescence quantum yield (in CC(C)=O): 0.01 | photoluminescence quantum yield (in CCCO): 0.31 | photoluminescence quantum yield (in CCO): 0.26 | photoluminescence quantum yield (in CN(C)C=O): 0.0001 | photoluminescence quantum yield (in CN(C)P(=O)(N(C)C)N(C)C): 0.0001 | photoluminescence quantum yield (in CNC=O): 0.11 | photoluminescence quantum yield (in CO): 0.22 | photoluminescence quantum yield (in CS(C)=O): 0.04 | photoluminescence quantum yield (in ClC(Cl)Cl): 0.01 | photoluminescence quantum yield (in NC=O): 0.48

Source: the Deep4Chem optical property database
